# Laboratory results: BindingDB's records for doi:10.1016/j.ejmech.2014.06.016 (Ocean University of China, 2014)
# Test: Inhibition of p-glycoprotein in human MDA435/LCC6MDR cells assessed as concentration required to reduce taxol IC50 by half after 5 days by MTS assay
row,EC50 [nM],Compound
1,213,CCN(CC)c1ccc(Cc2c(Cc3ccc(OC)c(OC)c3)nc(NC(=O)c3cc(OC)c(OC)c(OC)c3)n2C)cc1
2,211,CCN(CC)c1ccc(Cc2c(Cc3ccc(OC)c(OC)c3)nc(N(C(=O)/C=C/c3cc(OC)c(OC)c(OC)c3)C(=O)/C=C/c3cc(OC)c(OC)c(OC)c3)n2C)cc1
